Key:
[1] = test system: HeLa cells; assay: Transfection of pSV-β-gal plasmid, β-galactosidase reporter activity; format: cell-based, human
Experimental: (§1) Cationic lipids and the co-lipids in chloroform were dried under a stream of N2 gas and vacuum-desiccated for a minimum of 6 h to remove residual organic solvent. The dried lipid film was hydrated in sterile deionized water at cationic lipid concentration of 1 mM for a minimum of 12 h. Liposomes were vortexed to remove any adhering lipid film and probe sonicated until a clear translucent solution is formed. The pDNA solution was added to the liposomes, mixed properly by pipeting and shaken on a rotary shaker (15-30 mins.) before use.
(§2) Cells were seeded at a density of 20,000 (for HeLa cells), 16,000 (for A-549 cells), 8,000 (for FL83B cells) per well in a 96-well plate 18-24 h before transfection. An amount of 0.30 μg of pDNA was complexed with varying amounts of lipids (to give +/− ratios of 0.3:1, 1:1, 3:1 and 9:1) in plain OPTIMEM (total volume made up to 100 μl) and then shaken on a rotary shaker at room temperature for 20-30 minutes. The complexes were then added to the cells. After 5 h of incubation, 200 μl of complete medium containing 10% FBS in DMEM for HeLa and 10% FBS in F-12K for FL83B and A549 was added to the cells. The medium was changed after 24 h and the reporter gene activity was estimated 48 h after transfection. Cells were washed with PBS (100 μl) and lysed in […] lysis buffer (5× reporter lysis buffer diluted to 1×, working concentration). The β-galactosidase activity per well was estimated by adding 50 μl of 2× substrate solution (1.33 mg/ml of ONPG, 0.2 M sodium phosphate, pH 7.15 and 2 mM magnesium chloride) to the lysate in a 96-well plate. Absorbance of the product ortho-nitrophenol was measured at 420 nm. The absorbance values reported are the average values from two replicate experiments performed in the same plate on the same day. Each transfection experiment was performed three times on three different days to control for variations in transfection efficiency.
(§3) Briefly, the efficacy of various lipid formulations were tested in three cell lines A-549, FL83B and HeLa cells and the transfection efficiencies of the cationic liposomal formulations were compared with a commercially available transfection reagent (e.g., Lipofectamine 2000).

[2] = test system: A549 cells; assay: as above; format: cell-based, human
Experimental: as §1, §2, §3

[3] = test system: FL83B cells; assay: as above; format: cell-based, rat
Experimental: as §1, §2, §3

[4] = test system: FL83B cells; assay: Cell Titer 96 AQueous One Solution (MTS) cytotoxicity assay; format: cell-based, rat; details: liposomal formulation alone or in combination with DOPE and DOPC as co-lipid
Experimental: (§4) Alternatively, the cytotoxicity of the lipids was measured using the Cell Titer 96® AQueous One Solution Cell Proliferation Assay. The Cell Titer 96® AQueous One Solution Reagent contains a tetrazolium compound [3-(4,5-dimethylthiazol-2-yl)-5-(3-carboxymethoxyphenyl)-2(4-sulfophenyl)-2H-tetrazolium, inner salt; MTS^17] and an electron coupling reagent (phenazine ethosulfate; PES). The cytotoxicity assay was performed in 96 well plates by maintaining the ratio of number of cells to amount of cationic lipid constant as in transfection experiments. MTS was added 24 hours after transfection. Cell Titer 96® AQueous One Solution Reagent (20 ul) was pipetted into each well of the 96-well assay plate containing the samples in 100 μl of culture medium. In case of HeLa cells the plates were incubated for 2 hours, whereas for FL83B cells, plates were incubated for 4 hours at 37° C. in a humidified, 5% CO2 atmosphere. Absorbance was then recorded at 490 nm.
(§5) In a second experiment, FL83B and HeLa cells were plated on 96 well plate 18 hours prior to transfection. Then, liposome was added to each well and incubated for 24 hours. Thereafter, Cell Titer 96® AQueous One Solution Reagent was added and incubated for 4 hours. The MTS tetrazolium compound (Owen's reagent) is bioreduced by viable cells into a colored formazan product that is soluble in tissue culture […]. The absorbance of the formazan was measured at 490 nm with a 96 well plate reader.

[5] = test system: HeLa cells; assay: as above; format: cell-based, human; details: liposomal formulation alone or in combination with DOPE and DOPC as co-lipid
Experimental: as §4, §5

[6] = test system: CDK9 expression; assay: In vivo delivery of CDK9 siRNA with liposome by tail vein injection, CDK9 expression in spleen; parameters: species or system BALB/c mice; details: Cy3-labeled CDk9 siRNA (25 μg) and liposome (125 μg), repeated 4 and 8 h later, within the initial 24 h after treatment
Experimental: Total RNA was extracted from tissues or cultured cells using Trizol (Invitrogen, Carlsbad, Calif.), and real-time RT-PCR for CDK9 and GAPDH mRNA quantification was carried out using 200 ng of total RNA and the QuantiTect SYBR Green RT-PCR Kit (Qiagen, Valencia, Calif.) according to the manufacturer's instructions. The ratio of CDK9 and GAPDH mRNA was calculated and expressed as a group average relative to the control group. The specific probe for detection of CDK9 mRNA levels was designed to the following regions of the CDK9 mRNA ORF, the forward primer 5′ TCGGACCAA AGCCTCACCGTATAA 3′, the reverse primer 5′ […] TTG 3′
Male BALB/c mice, 6-8 weeks of age and weighting 20-22 g, were purchased form the Jackson Laboratory (Bar Harbor, Me.). Synthetic siRNA were delivered in vivo using following method. For each mice 25 μg of siRNA in 100 μl of HEPES Buffered Saline (20 mM HEPES, 150 mM NaCl, pH 7.4) was transferred into a sterile tube. In a separate sterile tube 125 μg of liposome was mixed with 200 μl HEPES Buffered Saline. The siRNA solution was transferred to the tube containing liposome solution and then incubated at room temperature for 20 minutes. 200 μl of the complexes was injected via the tail vein, using a 1-ml syringe and 27-gauge needle. The injection was repeated 4 and 8 h later. Control mice were injected with an equal volume of liposome. At 24 h after the last injection, the mice were sacrificed and tissues were harvested for further analysis. CDK9 expression level was normalized with GAPDH and then compared to those obtained from control animals and shown as percent expression. The data represent the mean value +/− SD of three to five mice in each group.
Briefly, the ability of the new synthesized liposome to deliver siRNA in mice was investigated. BALB/c mice were administrated with complexes of Cy3-labeled CDk9 siRNA (25 μg) and liposome (125 μg) via normal pressure tail vein injection. The injection was repeated 4 and 8 h later. Control mice were administrated with an equal amount of liposome. […]

[7] = test system: FL83B cells; assay: Cell Titer-Blue cell viability assay, cytotoxicity of liposomes; format: cell-based, rat; details: 50 μg/ml, 24 h incubation
Experimental: The Cell Titer-Blue Cell Viability Assay Kit (Promega, Madison, Wis.) was applied to detect and measure cytotoxicity in FL83B cells according to the manufacturer's instructions. Briefly, […] cells were plated on 96-well plate in F-12K medium (ATCC, Manassas, Va.) with 10% fetal bovine serum at 37° C. in 5% CO2. At 24 h., liposomes were added to each well at various concentrations and incubated for 24 h at 37° C. in 5% CO2. Afterwards, the Cell Titer-Blue Reagent was added to each well at 20 μl/well and incubated for 4 h at 37° C. in 5% CO2. The fluorescent signal was recorded by a fluorescent reader (560/590 nm).
Briefly, in a first experiment, the ability of eukaryotic cells to survive exposure to various lipids at doses of 20 and 50 μg/ml was examined. Fl83B cells were plated on 96-well plate for 24 hours. Typically liposomes were added to well and incubated at 37° C. for 24 hours. Thereafter, Cell Titer-Blue Reagent (resazurin) was added and incubated for 4 hours. Resazurin was used as indicator to measure the metabolic capacity of cells. Viable cells retain the ability to reduce resazurin into resorufin, which is highly fluorescent. […] The fluorescence in each well was measured by fluorescent reader.
All cytotoxicity measurements were performed after 24 h of incubation with new synthesizes liposome without medium changes. […]

[8] = test system: A-549, FL83B and HeLa cells; assay: Transfection of pSV-β-gal plasmid, overall statement without cell line; format: cell-based; details: alone without any co-lipids
Experimental: as §2, with “efficiency. […]” for “efficiency.”

[9] = alone or in combination with DOPE and DOPC, lipid:DNA charge ratio 9.0:1 to 0.3:1.0
[10] = lipid:DNA charge ratio 9.0:1 to 0.3:1.0
[11] = in combination with DOPE and DOPC
[12] = alone and in combination with DOPE and DOPC, lipid:DNA charge ratio 9.0:1 to 0.3:1

CC[N+](C)(C)CCNC(=O)OC1CC[C@@]2(C)C(=CC[C@H]3[C@@H]4CC[C@H]([C@H](C)CCCC(C)C)[C@@]4(C)CC[C@@H]32)C1 (some centres unmarked) [Lipid 14]
transfection efficiency compared with Lipofectamine 2000 ([1]; in combination with DOPC, lipid:DNA charge ratio 0.3:1): almost comparable | transfection efficiency, fold less than Lipofectamine 2000 ([1]; in combination with DOPE): 2.5 fold | transfection efficiency, fold less than Lipofectamine 2000 ([1]; lipid alone, charge ratio 9:1 to 3:1): more than 1.5 fold | transfection efficiency, fold less than Lipofectamine 2000 ([2]; alone or in combination with DOPE and DOPC, lipid:DNA charge ratios 1:1 and 0.3:1): about 1.5 fold | transfection efficiency compared with Lipofectamine 2000 ([3]; alone, charge ratio 3:1): comparable | transfection efficiency compared with Lipofectamine 2000 ([3]; in combination with DOPC): less efficient | transfection efficiency compared with Lipofectamine 2000 ([3]; in combination with DOPE, charge ratio 9:1): comparable

CC(C)CCC[C@@H](C)[C@H]1CC[C@H]2[C@@H]3CC=C4C[C@@H](OC(=O)NCC[N+](C)(C)CCCCCCCCCCCO)CC[C@]4(C)[C@H]3CC[C@]12C.[Br-] [Lipid 16]
transfection efficiency, fold less active than Lipofectamine 2000 [1, 9]: about 1.5 fold | transfection efficiency of lipid alone compared with combination with co-lipids DOPE and DOPC [1, 10]: almost the same | transfection efficiency compared with Lipofectamine 2000 [2, 9]: about a little more than one fold | transfection efficiency of lipid alone compared with combination with co-lipids DOPE and DOPC [2, 10]: almost the same | cytotoxicity as compared to a control [4]: non-toxic | transfection efficiency compared with Lipofectamine 2000 ([3]; alone or in combination with co-lipids): about two fold less | cytotoxicity as compared to a control [5]: non-toxic

CC(C)CCC[C@@H](C)[C@H]1CC[C@H]2[C@@H]3CC=C4CC(OC(=O)CCC(=O)OCC(O)C[N+](C)(C)C)CC[C@]4(C)[C@H]3CC[C@]12C (some centres unmarked) [Lipid 12, N,N,N-Trimethyl-N-[2-hydroxy, 3-succinyloxy(4-cholesteryloxy)-propyl]ammonium iodide]
transfection efficiency compared with Lipofectamine 2000 ([1]; lipid:DNA charge ratio 0.3:1): comparable | transfection efficiency compared with Lipofectamine 2000 ([2]; lipid:DNA charge ratio 0.3:1): comparable | transfection efficiency compared with Lipofectamine 2000 ([3]; lipid:DNA charge ratio 0.3:1): comparable

CCCCCCCCCCCCCC(=O)O[C@H](COC(=O)CCC(=O)O[C@H]1CC[C@@]2(C)C(=CC[C@H]3[C@@H]4CC[C@H]([C@H](C)CCCC(C)C)[C@@]4(C)CC[C@@H]32)C1)C[N+](C)(CCO)CCO.[I-] [Lipid 9]
transfection efficiency, fold less than Lipofectamine 2000 [1, 11]: more than 1 fold | transfection efficiency compared with Lipofectamine 2000 [2, 11]: comparable | CDK9 expression level in the spleen decreased by [6]: 30% | transfection efficiency, fold less than Lipofectamine 2000 [3, 11]: more than 1 fold | cell death [7]: 12%

CCCCCCCCCCCCCC(=O)OC(COC(=O)CCC(=O)O[C@H]1CC[C@@]2(C)C(=CC[C@H]3[C@@H]4CC[C@H]([C@H](C)CCCC(C)C)[C@@]4(C)CC[C@@H]32)C1)C[N+](C)(C)C.[I-] (some centres unmarked) [Lipid 7, N,N,N-Trimethyl-N-[2-(tetradecanoyloxy),3-succinyloxy(4-cholesteryloxy)-propyl]ammonium iodide]
transfection efficiency compared with Lipofectamine 2000 [1, 12]: more than one fold less | transfection efficiency compared with Lipofectamine 2000 [2, 12]: comparable | cytotoxicity as compared to a control [4]: non-toxic | CDK9 expression level in the spleen decreased by [6]: 40% | transfection efficiency compared with Lipofectamine 2000 [3, 12]: comparable | cytotoxicity as compared to a control [5]: non-toxic | transfection efficiency of lipid alone compared with lipid in combination with DOPE and DOPC [8]: about as efficient

Source: patent US8329681B2, “Methods and compositions for the efficient delivery of therapeutic agents to cells and animals” (University of Massachusetts, priority 2005, dated 2012)
